Assay results reported in ChEMBL document CHEMBL4613273, “Discovery of Aryl Formyl Piperidine Derivatives as Potent, Reversible, and Selective Monoacylglycerol Lipase Inhibitors” (J Med Chem, 2020).

Tests used:
[1] = tested on: Mus musculus; assay: Antidepressant activity in ICR mouse model of reserpine-induced depression assessed as immobility time at 5 mg/kg, ig by forced swim test (reference value: 136.84 +/- 46.69 secs); type: functional
[2] = tested on: Mus musculus; assay: Antidepressant activity in ICR mouse model of reserpine-induced depression assessed as immobility time at 5 mg/kg, ig by tail suspension test (reference value: 132.38 +/- 44.51 secs); type: functional
[3] = biological target: T1, Monoglyceride lipase (Homo sapiens, UniProt Q99685); assay: Inhibition of human recombinant MAGL pre-incubated for 5 mins before MAGL substrate addition and further incubated for 10 mins
T1 sequence (Q99685 whole entry): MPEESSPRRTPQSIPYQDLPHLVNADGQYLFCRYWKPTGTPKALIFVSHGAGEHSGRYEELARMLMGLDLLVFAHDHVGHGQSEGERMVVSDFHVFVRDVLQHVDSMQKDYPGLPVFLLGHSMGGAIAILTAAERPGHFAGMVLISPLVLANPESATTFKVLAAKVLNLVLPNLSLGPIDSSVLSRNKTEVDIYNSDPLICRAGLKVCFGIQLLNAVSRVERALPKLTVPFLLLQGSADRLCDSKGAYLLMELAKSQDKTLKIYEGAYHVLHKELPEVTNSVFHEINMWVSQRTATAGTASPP

[4] = biological target: T2, Fatty-acid amide hydrolase 1 (Rattus norvegicus, UniProt P97612); assay: Inhibition of rat FAAH
T2 sequence (P97612 whole entry): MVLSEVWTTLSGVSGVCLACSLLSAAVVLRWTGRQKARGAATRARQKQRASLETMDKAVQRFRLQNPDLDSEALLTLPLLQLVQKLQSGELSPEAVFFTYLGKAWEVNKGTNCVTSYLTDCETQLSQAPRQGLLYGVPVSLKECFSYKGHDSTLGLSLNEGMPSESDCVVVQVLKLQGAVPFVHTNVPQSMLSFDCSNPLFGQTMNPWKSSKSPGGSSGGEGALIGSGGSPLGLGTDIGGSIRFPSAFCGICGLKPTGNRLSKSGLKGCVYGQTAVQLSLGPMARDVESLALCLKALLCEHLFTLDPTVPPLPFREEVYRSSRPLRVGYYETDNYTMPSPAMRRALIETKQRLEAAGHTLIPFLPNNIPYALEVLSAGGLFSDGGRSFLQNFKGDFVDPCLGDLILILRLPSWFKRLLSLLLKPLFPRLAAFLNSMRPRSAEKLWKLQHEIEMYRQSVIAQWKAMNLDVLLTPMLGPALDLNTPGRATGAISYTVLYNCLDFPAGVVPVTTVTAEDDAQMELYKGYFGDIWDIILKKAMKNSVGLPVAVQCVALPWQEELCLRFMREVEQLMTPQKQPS

Q: With `CNCCC(Oc1ccc(C(F)(F)F)cc1)c1ccccc1.Cl` (stereo unspecified) [FLUOXETINE HYDROCHLORIDE] as the compound, how does the Time [1] read?
A: 92.64 s

Q: What about the Time [2] of the same compound?
A: 92.19 s

Q: With `COc1cccc(C(=O)N2CCC(C(=O)Nc3cccc(O)c3)CC2)c1` as the compound, how does the IC50 [3] read?
A: > 100 µM

Q: For `CC(C)(C)c1ccc(CN2CCN(C(=S)Sc3ccc([N+](=O)[O-])cc3[N+](=O)[O-])CC2)cc1`, which IC50 [4] is on record?
A: 1.74 µM

Q: For `O=C(Nc1cccc(Cl)c1)C1CCN(C(=O)c2ccccc2O)CC1`, which IC50 [3] is on record?
A: > 100 µM

Q: `O=C(Nc1ccccc1)C1CCN(C(c2ccc(F)cc2)c2ccc(F)cc2)CC1` was tested. Which IC50 [3] did it give?
A: > 100 µM

Q: `Cc1cc(C)cc(NC(=O)C2CCN(C(c3ccccc3)c3ccccc3)CC2)c1` was tested. Which IC50 [3] did it give?
A: > 100 µM

Q: `COc1cccc(NC(=O)C2CCN(C(c3ccccc3)c3ccccc3)CC2)c1` was tested. Which IC50 [3] did it give?
A: > 100 µM

Q: For `O=C(Nc1cccc(Cl)c1)C1CCN(C(=O)c2ccc(Cl)cc2)CC1`, which IC50 [3] is on record?
A: > 100 µM

Q: For `O=C(Nc1ccccc1)C1CCN(C(c2ccccc2)c2ccccc2)CC1`, which IC50 [3] is on record?
A: > 100 µM

Q: How did the IC50 [3] turn out when `Cc1cc(C)cc(NC(=O)C2CCN(C(c3ccc(F)cc3)c3ccc(F)cc3)CC2)c1` was run?
A: > 100 µM
